The nature of data set [1]: Body weight after maximum dose regime (90 mg/kg) in mice. Format: in vivo. The note with it: 90 mg/kg oral gavage daily for 5 days, euthanasia 96 hr after last dose. As for the experimental part:
FIG. 15. Murine weight change after maximum dose regime (90 mg/kg).
The effects of compounds C30 and C38 at single high dose of 90 mg/kg. Twelve male mice were divided into three groups: 1) Control group (4 mice), 2) compound C30 (4 mice) and 3) compound C38 (4 mice). By oral gavage, animals were given 90 mg/kg of agent daily for 5 consecutive days (vehicle: 30% Solutol in saline). Mice were weighed every day during the treatment period. They were humanely euthanized 96 hours after the last dose. Tissues including the pancreas, liver and kidneys were collected (snap frozen in liquid nitrogen) for RNA extraction. […] Those given compound C30 lost ˜5% of body weight (FIG. 15).

Data set [2] deals with human islets. In words: Human islet viability by FDA/PI staining under high glucose plus cytokines. Format: cell-based. Conditions: HG/cytokine cocktail, 24 hr, 5 uM compound. On the procedure: FIG. 19. Lead compounds enhance viability in human islets and protect them from apoptosis. 200 IEQ human islets (Hu 1183) were cultured in PIM(R)® medium containing NG (5.8 mM glucose) or HG (25 mM glucose), and mixture of TNFα (20 ng/ml), IL1β (20 ng/ml), and IFNγ (200 ng/ml) for 24 hours with or without C30 or C38. Islets were collected, washed with PBS once and stained with FDA and PI for 5 minutes and visualized with a Keyence All-in-One Fluorescence Microscope (BZ-X800E).
Lead compounds increase viability of human islets. […] Fluorescein diacetate/propidium iodide (FDA/PI) staining was employed to assess human islet viability.

In data set [3] the test system is THP1 cells. The data set is described as follows: RNA-seq transcriptome profiling of THP1 cells in high glucose (differential expression, GO, GSEA). Format: cell-based, human. Conditions: for biological processes (BPs) suppressed (GSEA): HG treated THP1 cells; for number of downregulated genes, compound+HG versus HG / number of upregulated genes, compound+HG versus HG / rank of TXNIP gene among differentially expressed genes / number of HG-induced genes inhibited by the compound (overlap): THP1, 25 mM glucose; for number of downregulated genes, compound+HG versus HG / number of upregulated genes, compound+HG versus HG / rank of TXNIP gene among differentially expressed genes / functions of downregulated genes (Gene ontology analysis): 5 uM; for number of downregulated genes, compound+HG versus HG / number of upregulated genes, compound+HG versus HG / functions of downregulated genes (Gene ontology analysis): fold change ≥2 and FDR<5%; for rank of TXNIP gene among differentially expressed genes: p-value close to 0; for number of HG-induced genes inhibited by the compound (overlap): 72 hours, 2.5 um compound, FC >2 or <0.5, FDR-adjusted p <0.05; for number of HG upregulated genes downregulated by both C30 and C38: THP1, FC≥1.5 & FDR<5%; for functions of downregulated genes (Gene ontology analysis) / normalized enrichment score (NES), HG-downregulated genes (GSEA) / normalized enrichment score (NES), HG-upregulated genes (GSEA): THP1 in HG; for normalized enrichment score (NES), HG-downregulated genes (GSEA) / normalized enrichment score (NES), HG-upregulated genes (GSEA): with versus without compound. As for the experimental part: FIGS. 10A-10C. C30 and C38 inhibit the same subset of genes induced by high glucose (HG). THP1 cell were cultured in RPMI 1640 medium under 25 mM glucose for 72 hours with […] C30 or C38. Total RNA was prepared and sent for RNA-seq. Differential expression analysis was conducted as described in the Methods. […] FIG. 10A: Overlap between HG-induce genes and C30-inhibited genes in THP1 cells. FIG. 10B: Overlap between HG-induce genes and C38-inhibited genes in THP1 cells. FIG. 10C: Overlap between common genes from FIG. 10A (60 genes) and common genes from FIG. 10B (64 genes).
FIGS. 11A-11B. FIG. 11A: Heatmap of 60 high glucose-responsive and C30/C38-inhibited genes. Differential expression was calculated using these counts with edgeR (5, 6) version 3.0. After correcting for differences in library sizes, a fold change of >1.5 and a p-value of <0.05 were applied to select expressed genes. Overlapped genes were used for generating heatmap using Java TreeView. NG: THP1 under 5 mM glucose; HG: THP1, 25 mM glucose; C30: THP1, 25 mM glucose, 5 uM C30; C38: THP1, 25 mM glucose, 5 uM C38. All are replicates. From top to bottom: HSD11B1, EGR1, NFE2, CCL2, TIFAB, SH2D2A, UHRF1, CD52, TIMP3, TNF, S100P, PAQR4, LY6E, VPS9D-AS, RNASE3, MIR4258, GAS6, LIMD2, MBOAT7, CFD, PKMYT1, CHAC1, MFNG, DEFB1, ICAM2, NT5DC2, GPR35, HINT2, SEPT5-GP1BB, NRSN2, CDH24, SLC37A2, ADAT3, LST1, SPNS3, LTB, H2AFX, FUOM, FAM163A, BATF3, TMEM160, CITED4, MIR3661, TNFSF14, SLC6A9, TONSL, AVEN, SUSD3, TSPO, DDIT4, CKB, SLC22A31, HAAO, MF5SD3, SLC38A5, SIGMAR1, RGMA, DNPH1, ADGRE5, C20orf24, GATA2, RAB37, GDPD5, GAREM2, PIGQ, IMPA2, CRYBB2P1, UCP2, RELB, FOXL2, STC2, HOXA11-AS, MIR1282, RTN2, ZNF511, STARD10, NRM, NF2, ITGB7, POMGNT, KLF10, KLF2, NECAB2, C6orf223, IGFBP4, ACP2, TMEM161A, RHBDD2, YDJC, G0S2, FAM20C, TKTL1, PDIA3P1, HCST, FBXL15, LINC00116, FLNA, TXNIP, MIR3687-1, ARRDC4.
FIG. 21. Volcano plots on gene expression changes induced by TXNIP inhibitors (C30 or C38) under high glucose (HG) conditions in THP1 cells. Gene expression in THP cells grown in HG were treated with and without C30 or C38 and profiled by RNAseq. Expression of RefSeq genes with rpkm≥5 in at least one sample were TMM-normalized and compared in cells treated with HG plus C30 or C38 (C30+HG or C38+HG) versus the cells treated with HG alone using edgeR (v 3.28.1). […] Each dot represents one gene with fold change (in log 2 format) in C30/C38+HG sample vs. HG as x-axis and significance level (in −log 10 format) as y-axis.
FIG. 22. Enriched BPs on DEGs induced by TXNIP inhibitors. […] The enriched BPs were identified at FDR<5% using enrichGO R package and up to 15 BPs with the most significant enrichment are shown as horizontal bar plots. In each bar, number of DEGs in the BP is presented by y-axis and the enrichment significance is represented by different grey-scale colors indicated in the color bar.
FIG. 24. Impact of C30/C38 treatment on HG-regulated genes by GSEA analysis. […] In the analysis for each treatment (C30 or C38), all the expressed genes were ranked based on the signed significance levels, −log10 Pvalue with signs determined by FC (positive if FC>1 and negative if FC<1), on each gene's expression difference between samples with and without treatment. The overall gene expression difference in THP1 cells (in HG condition) treated with or without C30/C38 on these two genesets were analyzed using pre-ranked GSEA analysis.
FIG. 25. […] All the expressed genes were ranked based on the signed significance levels of each gene's expression difference (C30+HG vs. HG). […] In the plot shown, each bubble represents one geneset. […] Genesets related to BPs are represented by solid black bubbles and related to HG regulated genesets are shown as hollow black bubbles.
FIG. 26. […] All the expressed genes were ranked based on the signed significance levels of each gene's expression difference (C38+HG vs. HG). […] In the plot, each bubble represents one geneset. […]

The source of these data is US11964984B2, “TXNIP-TRX complex inhibitors and methods of using the same” (CITY OF HOPE, priority 2020, dated 2024).

For the molecule `c1ccc(CCNc2ncnc3c2oc2ccccc23)cc1` [Compound C38], in data set [1], the weight loss result is given as “no significant weight loss”. For the same molecule, in data set [2], the “human islet viability (FDA/PI staining)” value is on record as “protected human islets from death”. In addition, in data set [3], the “biological processes (BPs) suppressed (GSEA)” value is listed as “suppressing BPs involved in metabolic process, DNA replication, immune response, splicing”; the “number of downregulated genes, compound+HG versus HG” value was determined as 537 genes; the “number of upregulated genes, compound+HG versus HG” value worked out at 741 genes; the “rank of TXNIP gene among differentially expressed genes” value is “most-significantly downregulated gene”. Further, in data set [3], the “number of HG-induced genes inhibited by the compound (overlap)” value turned out to be 64 genes; the “number of HG upregulated genes downregulated by both C30 and C38” value amounted to 23 genes; the “functions of downregulated genes (Gene ontology analysis)” value was “substantially inhibit functions related to immune/inflammation response”; the “normalized enrichment score (NES), HG-downregulated genes (GSEA)” value was determined as 1.83. Moreover, in data set [3], the “normalized enrichment score (NES), HG-upregulated genes (GSEA)” value was −1.98.

On to `COc1cc(N2CC[C@@H](c3ccc4ccccc4c3)[C@H](O)C2)nc(N)n1` [Compound C30], for which, in data set [1], the “loss of body weight” value is given as around 5%. Moreover, in data set [2], the “human islet viability (FDA/PI staining)” value is “protected human islets from death”. Besides, in data set [3], the “biological processes (BPs) suppressed (GSEA)” value is on record as “strongly suppresses BPs related to DNA replication, cell cycle, lipopolysaccharide metabolic process”; the “number of downregulated genes, compound+HG versus HG” value is on record as 571 genes; the “number of upregulated genes, compound+HG versus HG” value was 746 genes; the “rank of TXNIP gene among differentially expressed genes” value was “most-significantly downregulated gene”. In addition, in data set [3], the “number of HG-induced genes inhibited by the compound (overlap)” value is 60 genes; the “number of HG upregulated genes downregulated by both C30 and C38” value was 23 genes; the “functions of downregulated genes (Gene ontology analysis)” value is given as “substantially inhibit functions related to immune/inflammation response”; the “normalized enrichment score (NES), HG-downregulated genes (GSEA)” value is on record as 1.63. Also, the “normalized enrichment score (NES), HG-upregulated genes (GSEA)” value in data set [3] was −1.84.
